Measured values published in US10208049B2, “Compounds and methods of treating ocular disorders” (Case Western Reserve University, priority 2009, dated 2019).

What was measured:
ABCA4−/−/RDH8−/− mice = assay: HPLC analysis of 11-cis-retinal in eyes of ABCA4−/−/RDH8−/− mice; assay type: in vivo, mouse; conditions: HPLC peak area of 11-cis-retinal, No Treatment 88.2
Source text: (§1) We tested 21 drugs containing primary amino groups to determine if they react with the aldehyde group of all-trans-RAL to reduce its toxic levels in the eye after exposure to light and prevent its condensation into toxic conjugates. […] For these experiments, we used ABCA4^−/−/RDH8^−/− mice as models for Stargardt's disease and AMD. We employed analytical methods for determining the pharmacodynamics and pharmacokinetics of candidate drugs including: HPLC/MS/MS for analysis of retinoids and histological sections and OCT for assessment of retinal pathology. The relative amount of retinoids and their composition strongly correlates with the health status of the retina. […] Methodologies for performing the analysis on ABCA4^−/−/RDH8^−/− mice is described below.
(§2) Abca4^−/− mice also were generated by standard procedures (Ingenious Targeting, Inc., Stony Brook, N.Y.). […] Rdh8^−/−Abca4^−/− mice were established by crossbreeding Abca4^−/− mice with Rdh8^−/− mice. […] PCR products were cloned and sequenced to verify their identities.
All experimental procedures related to extraction, derivatization, and separation of retinoids from dissected mouse eyes were carried out under dim red light. Two whole mouse eyes were homogenized in 1 ml of 50 mM phosphate buffer, pH 7.0, containing 50% ethanol and 10 mM NH2OH. Ice-cold methanol (1 ml) was added to the homogenates 20 min after incubation at room temperature (RT), non-polar retinoids were extracted twice with 4 ml of hexane. The organic phase was collected, dried down in a SpeedVac and re-solubilized in 0.3 ml of hexane. […] Retinoids were detected at 325 nm (retinyl esters and retinols) and 350 nm (retinyl oximes) with a diode array detector. Those of interest were quantified based on the areas under their peaks calculated with the help of HP Chemstation A.03.03 software and compared with areas calculated based on known amounts of synthetic standards plotted as a standard curve.

Rdh8−/−Abca4−/− mice = assay: SD-OCT grading of retinal degeneration in light-exposed Rdh8−/−Abca4−/− mice; assay type: in vivo, mouse; conditions: for effectiveness in treating retinal degeneration in the mice: ABCA4−/−/RDH8−/− mice, effective = OCT score at least about 2.5 and 11-cis-retinal increase at least about 30%; for Score OCT: Rdh8−/−Abca4−/− mice, SD-OCT 7 days after 10,000 lux illumination for 30 min at 4 weeks of age, score 5 = no degeneration, 1 = severe, No Treatment 1
Source text: as §1, §2
Although analytical and histological methods provide exhaustive characterization of retina, they cannot be performed in vivo. To reduce the number of sacrificed animals and time required for analysis, SD-OCT from Bioptigen (Research Triangle Park, N.C.) was employed for in vivo imaging of mouse retinas. Bioptigen OCT systems utilize a narrow single-mode beam from a wide bandwidth light source to probe the structure of retina at a higher resolution (2.0 μm) than normal OCT systems. Mice were anesthetized by intraperitoneal (IP) injection of 20 μl/g bw of 6 mg/ml ketamine and 0.44 mg/ml xylazine diluted with 10 mM sodium phosphate, pH 7.2, containing 100 mM NaCl. Pupils were dilated with 1% tropicamide. In vivo SD-OCT images were obtained from both eyes. Four pictures acquired in a B-scan mode were used to construct the final averaged images (FIG. 8).
In vivo retinal structures of Rdh8^−/−Abca4^−/− mice are imaged by SD-OCT 7 days after 10,000 lux illumination for 30 min at 4 weeks of age.

[1] = Formation of Schiff base between retinal and selected amines (UV/Vis spectra); assay type: physicochemical; conditions: 90% ethanol in water, 0.1 M phosphate buffer pH 7.0, 2 molar excess of amine, 1 h room temperature
Method: Formation of conjugates (Schiff-base) between retinal and primary amine compounds containing amino group (putative drugs) is the key mechanism to control all-trans-RAL levels in the retina and prevent retina degeneration. Stability of these conjugates is an important factor that can determine biological activity of the drugs. To standardize conditions of Schiff-base formation all reactions were performed in 90% ethanol in water buffered with 0.1 M phosphate buffer, pH 7.0. Stock solution of retinal was made up freshly in ethanol. Its final concentration was determined spectrophotometrically at 380 nm (ε=42,880). All procedures were carried out in the dark. Schiff base formation was initiated by addition of retinal stock solution to a 2 molar excess of tested amine dissolved in the reaction buffer. The reaction mixture was incubated for 1 h in room temperature.
Steady-state rate of Schiff-base formation was obtained from absorbance changes at 380 and 440 nm (510 nm for aromatic amines) corresponding to free retinal and protonated Schiff base, respectively. To investigate stability of the given retinal conjugates a mixture of HPLC purified Schiff base of selected compound and phosphatidylocholine was dried down in SpeedVac. Then, Schiff-base and lipids were overlaid with 0.1 M phosphate buffer and sonicated immediately to form liposomes. The samples were extracted with hexane following 30 min incubated in room temperature. The breakdown of Schiff-base was monitored by HPLC detection of free retinal extracted from the reaction mixture.
FIGS. 3-5 illustrate UV/Vis spectra for the FDA approved drugs. FDA approved drugs that were active readily formed a Schiff base with all-trans-RAL as evidenced by a substantial differential between spectra of unprotonated and protonated Schiff base.

Row | Structure (SMILES) | 11cRAL (area) (ABCA4−/−/RDH8−/− mice) | effectiveness in treating retinal degeneration in the mice (Rdh8−/−Abca4−/− mice) | Score OCT (Rdh8−/−Abca4−/− mice) | formation of stable Schiff-base with all-trans-RAL [1]
1 | CC(C)C[C@@H](CN)CC(=O)O [(R)-3-(aminomethyl)-5-methylhexanoic acid] | 164.8 | effective in treating retinal degeneration |  | 
2 | Nc1ccc(C(=O)NCC(=O)[O-])cc1.[Na+] [Aminohippurate Sodium] | 109.4 |  | 1 | 
3 | Nc1ccc(O)c(C(=O)O)c1 [Asacol] | 140.2 | effective in treating retinal degeneration |  | 
4 | CC(C)(S)[C@@H](N)C(=O)O [Cuprimine] | 118.5 |  | 1.7 | did not readily form stable Schiff-bases
5 | Nc1ccc(S(=O)(=O)c2ccc(N)cc2)cc1 [Dapsone] | 156.5 | effective in treating retinal degeneration |  | 
6 | CC(N)C12CC3CC(CC(C3)C1)C2 (stereo not drawn) [Flumadine] | 135.3 | effective in treating retinal degeneration |  | 
7 | N[C@@H](CC(=O)N1CCn2c(nnc2C(F)(F)F)C1)Cc1cc(F)c(F)cc1F [Januvia] | 126.8 | effective in treating retinal degeneration |  | 
8 | COCCCC/C(=N\OCCN)c1ccc(C(F)(F)F)cc1 [Luvox] | 175.5 | effective in treating retinal degeneration |  | 
9 | CC(C)C[C@H](CN)CC(=O)O [Lyrica, (S)-3-(aminomethyl)-5-methylhexanoic acid] | 166.5 | effective in treating retinal degeneration |  | readily formed stable Schiff-bases
10 | CC12CC3CC(C)(C1)CC(N)(C3)C2 [Nameda] | 97.6 |  | 1.7 | 
11 | Nc1ccc(C(=O)O)c(O)c1 [Paser] | 151.9 | effective in treating retinal degeneration |  | readily formed stable Schiff-bases
12 | Nc1ccc(C(=O)[O-])cc1.[K+] [Potaba] | 90.6 |  | 2.3 | did not readily form stable Schiff-bases
13 | NCCCC[C@H](N[C@@H](CCc1ccccc1)C(=O)O)C(=O)N1CCC[C@H]1C(=O)O [Prinivil] | 132.7 |  | 2.0 | 
14 | N[C@@H]1CON=C1O [Seromycin] | 159.9 | effective in treating retinal degeneration |  | readily formed stable Schiff-bases
15 | NS(=O)(=O)c1cc2c(cc1Cl)N=C[N-]S2(=O)=O.[Na+] [Sodium Diuril] | 139.7 | effective in treating retinal degeneration |  | 
16 | NCc1ccc(S(N)(=O)=O)cc1 [Sulfamylon] | 166.1 | effective in treating retinal degeneration |  | 
17 | CCOC(=O)C1=C[C@@H](OC(CC)CC)[C@H](NC(C)=O)[C@@H](N)C1 [Tamiflu] | 87.3 |  | 1.3 | 
